Measured values as given in patent US12264175B2, “Compositions and methods for capping RNAS” (Verve Therapeutics, Inc., priority 2020, dated 2025).

Legend:
[1] = test system: mouse PCSK9 (mPCSK9); assay: In vivo base editing in mouse with LNP of sgRNA and capped ABE mRNA (NGS editing efficiency); details: LNP with sgRNA targeting mPCSK9 and ABE mRNA; mice; FIG. 7
Experimental: Lipid nanoparticles (LNPs) are generated by microfluidic mixing using the Precision Nanosystems NanoAssemblr system according to the manufacturer's protocol, with some optimization for individual payloads. The resulting LNPs are filtered using 0.2-micron filters and stored at 4° C. or frozen at […]
LNPs used in these studies are prepared as described above in Example 6 (A), comprising chemically synthesized sgRNAs targeting the mouse ANGPTL3 (mANGPTL3) and/or mouse PCSK9 (mPCSK9) genes and SpCas9 or ABE8.8 mRNA in a 1:1 weight ratio, are administered to C57BL/6 mice (n=5) intravenously via the lateral tail vein or retro-orbital sinus in a total volume of 5-10 ml/kg. […]
Paired-end reads are analyzed with the CRISPResso2 pipeline (Clement, K. et al., Nat. Biotech. 2019, 37, 224-226). Briefly, low-quality reads are filtered out, adapter sequences are trimmed from the reads, and the paired-end reads are merged and aligned to the amplicon sequence. The editing percentage is calculated as the number of reads supporting […], over the total number of aligned reads. For ABE, the editing percentage is calculated as the number of reads supporting […], over the total number of aligned reads. […]

[2] = target: T7 RNA polymerase (Escherichia phage T7, UniProt P00573); assay: One-pot IVT preparation of 5′ capped mRNA (production yield, full-length purity); format: biochemical
Chain of T7 RNA polymerase (P00573 whole entry): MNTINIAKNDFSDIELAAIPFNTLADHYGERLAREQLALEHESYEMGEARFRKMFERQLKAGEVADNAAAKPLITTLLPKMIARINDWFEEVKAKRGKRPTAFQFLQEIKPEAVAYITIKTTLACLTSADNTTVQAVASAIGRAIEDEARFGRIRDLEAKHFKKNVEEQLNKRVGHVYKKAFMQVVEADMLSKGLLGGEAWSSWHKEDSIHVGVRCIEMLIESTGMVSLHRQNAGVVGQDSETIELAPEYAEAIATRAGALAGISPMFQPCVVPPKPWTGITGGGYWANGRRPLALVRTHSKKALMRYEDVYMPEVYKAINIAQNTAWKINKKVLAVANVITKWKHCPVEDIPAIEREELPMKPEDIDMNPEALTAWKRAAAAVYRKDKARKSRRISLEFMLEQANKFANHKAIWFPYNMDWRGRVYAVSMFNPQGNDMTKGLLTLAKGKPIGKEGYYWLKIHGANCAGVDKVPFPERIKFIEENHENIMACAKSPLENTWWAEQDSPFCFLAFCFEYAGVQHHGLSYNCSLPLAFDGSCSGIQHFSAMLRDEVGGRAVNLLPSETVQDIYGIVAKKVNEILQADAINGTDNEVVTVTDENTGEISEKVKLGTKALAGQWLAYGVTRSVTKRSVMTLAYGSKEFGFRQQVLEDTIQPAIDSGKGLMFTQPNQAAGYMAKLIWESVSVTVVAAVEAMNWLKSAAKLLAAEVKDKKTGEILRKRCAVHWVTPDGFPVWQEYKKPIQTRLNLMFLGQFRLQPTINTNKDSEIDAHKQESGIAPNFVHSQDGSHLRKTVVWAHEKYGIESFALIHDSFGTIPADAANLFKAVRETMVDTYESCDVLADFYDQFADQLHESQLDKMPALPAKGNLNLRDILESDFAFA
Description: The 5′ end initiator, 1007a, (FIG. 1A) was used to prepare capped mRNAs that encode for ABE and luciferase proteins. In this Example and for all others described herein, the ABE mRNA sequence was MA004 (SEQ. 0001) and the luciferase mRNA sequence was the Photinus pyralis (Firefly) luciferase sequence described in NCBI reference sequence XM_031473197.1. These mRNA can be produced by different methods well known in the art. One of such methods used herein was in vitro transcription (IVT) using T7 polymerase; or in other embodiments, additional RNA polymerase variants. This IVT reaction to produce mRNA used a linearized DNA template that comprised a T7 polymerase promoter and associated regulatory sequences, mRNA coding sequence (CDS), 3′ and 5′ untranslated regions (UTRs), poly A tail, and additional sequence elements to facilitate and modulate mRNA stability and in vivo performance. Prior to IVT, the DNA template was in the form of a plasmid; in other embodiments the DNA template is in the form of a PCR product, synthetic DNA product, or any other double-stranded DNA construct. Linearization of the DNA template with a restriction digestion enzyme was performed in order to promote run-off transcription. The typical IVT reaction included T7 polymerase, DNA template, RNase inhibitor, cap analog, inorganic pyrophosphatase, and the naturally occurring ribonucleoside triphosphates (NTPs) such as GTP, ATP, CTP, and N1-methyl pseudouridine triphosphosphate; in some embodiments NTPs include UTP or modified NTPs such as pseudouridine, 5′methyl cytidine, 5-methoxy uridine, N6-methyl adenosine, and N4-acetyl cytidine. The 1007a 5′ end initiator was added to the IVT reaction along with ATP, GTP, CTP, and N1-methyl pseudouridine triphosphate at a 1:1 initiator-to-NTP molar ratio and additional ratios described in Example 5 (B). Poly A tail was encoded in the DNA template that was added to the mRNA during transcription; in some instances, poly A tail is added to the mRNA after the IVT reaction using an RNA ligase enzyme. Finally, T7 RNA polymerase was added to the mixture and the IVT reaction was run at 37° C. for about 1-4 hours. After IVT, DNase was added to the transcription mixture to remove DNA template; in some instances, residual DNA is removed with chromatography. This mRNA was purified to remove residual reaction products and impurities, and stored in 1 mM citrate buffer. Characterization of production yield and mRNA full-length purity was performed by UV spectrometry and capillary gel electrophoresis methods, which are known in the art. […] Similar IVT and purification process are used to produce mRNA encoding SpCas9, Cas12b, CBE, and other ABEs; in all cases the DNA template, reaction conditions, and purification parameters are optimized for the specific gene of interest.
Similarly, ABE encoding mRNA with 5′ end region, 1107a, (FIG. 1B) was produced and characterized as described in the paragraph above.

## COC1C(OP([O-])(=S)OCC2OC(n3cnc4c(=O)[nH]c(N)nc43)C(O)C2O)C(COP(=O)(O)OP(=O)(O)OP(=O)(O)OCC2OC(n3c[n+](C)c4c(=O)[nH]c(N)nc43)C(O)C2O)OC1n1cnc2c(N)ncnc21 (stereo not shown) [1007a, m^7G(ppp)Am(ps)G]
[1]
  hepatocyte editing levels as compared to mRNA with 5′ end region motif 1002a: similar
[2]; ABE encoding mRNA made with the 5′ end initiator, T7 IVT, FIG. 2
  final production yield of mRNA: about 3.3 mg per 1 ml of IVT reaction
[2]; ABE encoding mRNA made with the 5′ end initiator, capillary gel electrophoresis, FIG. 3
  mRNA full-length purity: about 88%
[2]; initiator-to-NTP ratio ranging from 1:1 down to 1:5, FIG. 3
  amount of full-length mRNA produced: did not reduce
